Each compound was assayed against T1, Cholesteryl ester transfer protein (Homo sapiens, UniProt P11597) (assay: Compound was tested for CETP inhibition by a precipitation method to separate lipoproteins after incubation of radiolabeled HDL with LDL and CETP.).
T1 sequence (P11597 whole entry): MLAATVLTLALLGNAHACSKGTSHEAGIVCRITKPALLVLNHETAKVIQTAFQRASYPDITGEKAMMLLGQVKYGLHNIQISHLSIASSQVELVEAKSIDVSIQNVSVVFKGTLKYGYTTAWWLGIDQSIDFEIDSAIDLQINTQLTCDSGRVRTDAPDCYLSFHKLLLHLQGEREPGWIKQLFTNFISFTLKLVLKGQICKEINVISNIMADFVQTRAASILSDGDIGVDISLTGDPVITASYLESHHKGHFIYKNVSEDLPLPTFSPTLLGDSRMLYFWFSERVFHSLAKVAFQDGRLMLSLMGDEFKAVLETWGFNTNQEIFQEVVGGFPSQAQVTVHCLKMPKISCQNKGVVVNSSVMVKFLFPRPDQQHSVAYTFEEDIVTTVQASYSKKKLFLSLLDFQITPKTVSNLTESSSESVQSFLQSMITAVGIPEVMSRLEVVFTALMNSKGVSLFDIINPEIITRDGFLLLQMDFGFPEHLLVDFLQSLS

SMILES | IC50
COc1ccc(O)c(O)c1CC1=C(C)CCC2C(C)(C)CCC[C@]12C (some centres not stated) | 1 µM
COc1ccc(O)c(O)c1/C=C1\[C@@H](C)CCC2C(C)(C)CCC[C@]12C (some centres not stated) | 0.6 µM

These compounds were tested against T1, Cholesteryl ester transfer protein (assay: Compound was tested for Cholesteryl ester transfer protein (CETP) inhibition by CETP-SPA assay).

SMILES | IC50
C[C@]12CC(=O)[C@@H](O)[C@](C)(CO)[C@@H]1CC[C@@]1(C)c3cocc3CC[C@H]21 [SPONGIADIOL] | 196 µM
COc1ccc(O)c(O)c1CC1=C(C)CCC2C(C)(C)CCC[C@]12C (some centres not stated) | 5 µM
CC1(C)CCC[C@]2(C)C3C=C4C(=CC(=O)C(O)=C4Cl)OC3CC[C@@]12C (some centres not stated) [CHOLOROPUUPEHENONE] | 0.3 µM
CC1=CC[C@H]2C(C)(C)CCC[C@]2(C)[C@H]1C[C@H](OS(=O)(=O)[O-])[C@H](C)CCCc1ccoc1.C[N+](C)=C(N)N [SULFIRICIN] | > 190 µM
C=C1CCC[C@H]2[C@](C)(CC3=C(O)C(=O)C=C(OC)C3=O)[C@@H](C)CC[C@]12C [ILIMAQUINONE] | 100 µM
CC1(C)CCC[C@]2(C)[C@H]3C=C4C=C(O)C(=O)C=C4O[C@@]3(C)CC[C@@H]12 [PUUPEHENONE] | 6 µM
COc1ccc(O)c2c1C[C@]1(C)[C@@H](C)CCC3C(C)(C)CCC[C@]31O2 (some centres not stated) | 46 µM
C[C@H]1CCC2C(C)(C)CCC[C@]23Oc2ccc(O)cc2C[C@]13C (some centres not stated) | 22 µM
CC1=CCC[C@H]2[C@](C)(Cc3cc(O)ccc3O)[C@@H](C)CC[C@]12C [AVAROL] | 25 µM
COc1ccc(O)c(O)c1/C=C1\[C@@H](C)CCC2C(C)(C)CCC[C@]12C (some centres not stated) | 5 µM

— ChEMBL document CHEMBL1128663, “Wiedendiol-A and -B, cholesteryl ester transfer protein inhibitors from the marine sponge Xestospongia wiedenmayeri” (Bioorg Med Chem Lett, 1995)
